# Experimental data as given in paper PMC6277767, “Broad and Region-Specific Impacts of the Synthetic Cannabinoid CP 55,940 in Adolescent and Adult Female Mouse Brains” (Frontiers in Molecular Neuroscience, 2018).
# What was measured:
# CB1 = system: CB1; set-up: method as in Felder et al., 1995; conditions: ref Felder et al., 1995; read-out: IC50, inhibition of adenylate cyclase at CB1; cited from earlier work
# [1] = set-up: method as in earlier work; conditions: ref Ferrari et al., 2000; Lopez et al., 2009; Gorzalka et al., 2010; cited from earlier work
# [2] = system: CD1 female mouse brain lipidome; assay: Brain-region lipid levels (HPLC/MS/MS lipidomics) 2 h after single i.p. 3 mg/kg CP 55,940 vs vehicle; type: in vivo
# Protocol: The Bloomington Institutional Animal Care and Use Committee of Indiana University reviewed and approved the animal procedures. Female mice from the CD1 strain were utilized to match our study examining THC’s effects on the brain lipidome ([Leishman et al., 2018]). Mice were given a single i.p. injection of either 3 mg/kg CP or 1:1:18 cremophor:ethanol:saline vehicle (please refer to the section “3 mg/kg CP Is Relevant for Synthetic Cannabinoid Abuse and Has Stronger Effects on the Female Mouse Brain Lipidome During Adolescence” for a justification of dose and use of female mice). Three different age groups were given injections: PND 35 and PND 50 adolescents, and adult mice (PND 113). At least eight mice in each age group received CP and at least eight received vehicle. Matching the THC study time course ([Leishman et al., 2018]), mice were sacrificed via rapid decapitation 2 h after injection. Brains were immediately removed and flash-frozen in liquid nitrogen, and then stored at -80°C until dissections were performed. Brains were dissected on an ice-cold dissection plate into the following regions: STR, HIPP, CER, THAL, CTX, HYP, MID, and STEM. These abbreviations for these brain areas will be used exclusively when discussing the results generated by these specific dissections. Each dissected area was immediately placed in liquid nitrogen and then stored at -80°C until used for lipid extraction.
# Tissue extracts were performed as previously described ([Bradshaw et al., 2006]; [Stuart et al., 2013]; [Raboune et al., 2014]; [Leishman et al., 2016a],[b], [2017], [2018]). First, samples were shock frozen in liquid nitrogen, weighed, and transferred to a centrifuge tube. The mass of the largest sample was multiplied by 50 to determine how many milliliters of HPLC-grade methanol (Fisher, Fair Lawn, NJ, United States) to add. Then, samples were spiked with 500 pmol deuterium-labeled NAGly (d8NAGly; Cayman Chemical, Ann Arbor, MI, United States). Samples were placed on ice in darkness for 2 h then individually homogenized and centrifuged at 19,000 × g for 20 min at 20°C. Supernatants were diluted with HPLC water (purified in house) to make a solution of 75% water, 25% supernatant. Lipids were partially purified on C18 solid phase extraction columns (Agilent, Palo Alto, CA, United States). A series of four elutions with 1.5 mL of 60%, 75%, 85%, and 100% methanol were collected ([Stuart et al., 2013]; [Leishman et al., 2016a],[b], [2018]).
# As previously described ([Bradshaw et al., 2006]; [Tan et al., 2006]; [Smoum et al., 2010]; [Stuart et al., 2013]; [Tortoriello et al., 2013]; [Raboune et al., 2014]; [Leishman et al., 2016a],[b], [2017], [2018]), samples were analyzed using an Applied Biosystems API 3000 triple quadrupole mass spectrometer with electrospray ionization (Foster City, CA, United States). Using an Agilent XDB-C18 reversed phase analytical column and optimized mobile phase gradients, 20 μL from each elution were chromatographed. Two Shimadzu 10ADvp pumps (Columbia, MD, United States) provided the pressure for gradient elution. Mobile phase A: 20% methanol, 80% water (v/v) and 1 mM ammonium acetate (Sigma, St. Louis, MO, United States). Mobile phase B: 100% methanol, 1 mM ammonium acetate. Every method run began with 0% mobile phase B, reached 100% mobile phase B flowing at 0.2 mL/min, and gradually returned to 0% mobile phase B.
# This screening library will be referred to as the lipidome when discussing data from this study. HPLC/MS/MS data were analyzed using Analyst software (Applied Biosystems) ([Bradshaw et al., 2006]; [Tan et al., 2006]; [Stuart et al., 2013]; [Tortoriello et al., 2013]; [Raboune et al., 2014]; [Leishman et al., 2016a],[b], [2017], [2018]). Chromatograms (Supplementary Figure 3) were generated by determining the retention time of analytes from the analytical column with a [M-1] or [M+1] parent peak and a fragmentation peak corresponding to the programmed values. […]
# CD1 female mice = assay: Visual observation of mice given CP; type: in vivo, mouse; conditions: PND 35, PND 50 and adult mice; 3 mg/kg i.p.
# Protocol: The Bloomington Institutional Animal Care and Use Committee of Indiana University reviewed and approved the animal procedures. Female mice from the CD1 strain were utilized to match our study examining THC’s effects on the brain lipidome ([Leishman et al., 2018]). Mice were given a single i.p. injection of either 3 mg/kg CP or 1:1:18 cremophor:ethanol:saline vehicle (please refer to the section “3 mg/kg CP Is Relevant for Synthetic Cannabinoid Abuse and Has Stronger Effects on the Female Mouse Brain Lipidome During Adolescence” for a justification of dose and use of female mice). Three different age groups were given injections: PND 35 and PND 50 adolescents, and adult mice (PND 113). At least eight mice in each age group received CP and at least eight received vehicle. Matching the THC study time course ([Leishman et al., 2018]), mice were sacrificed via rapid decapitation 2 h after injection. Brains were immediately removed and flash-frozen in liquid nitrogen, and then stored at -80°C until dissections were performed. Brains were dissected on an ice-cold dissection plate into the following regions: STR, HIPP, CER, THAL, CTX, HYP, MID, and STEM. These abbreviations for these brain areas will be used exclusively when discussing the results generated by these specific dissections. […]
smiles,measurement,setting,value
"CCCCCCC(C)(C)c1ccc([C@@H]2C[C@H](O)CC[C@H]2CCCO)c(O)c1 [CP 55,940]",IC50,CB1,[…]
same,doses attenuating social motivation,[1],over 0.4 mg/kg
same,"PGF2α level, Mean","[2]; adult cortex, 3mg/kg CP 55,940",2.77E-10
same,"PGF2α level, Mean","[2]; adult female mice, brainstem, 3mg/kg CP 55,940",1.69E-10
same,"PGF2α level, Mean","[2]; adult hypothalamus, 3 mg/kg CP 55,940",2.18E-10
same,"PGF2α level, Mean","[2]; adult midbrain, 3mg/kg CP 55,940",2.91E-10
same,"PGF2α level, Mean","[2]; brainstem, PND 50, 3 mg/kg CP 55,940",1.26E-10
same,"PGF2α level, Mean","[2]; cerebellum, WT adult female mice, 3mg/kg CP 55,940",2.22E-10
same,"PGF2α level, Mean","[2]; cerebellum, PND35 WT female mice, 3mg/kg CP 55,940",3.05E-10
same,"PGF2α level, Mean","[2]; cortex, PND 50 female mice, 3mg/kg CP 55,940",1.71E-10
same,"PGF2α level, Mean","[2]; cortex, PND 35 adolescent female mice, 3 mg/kg CP 55,940",3.11E-10
same,"PGF2α level, Mean","[2]; hippocampus, adult, 3 mg/kg CP 55,940",3.25E-10
same,"PGF2α level, Mean","[2]; hippocampus, PND 35 WT female mice, 3mg/kg CP 55,940",9.18E-10
same,"PGF2α level, Mean","[2]; hypothalamus, PND 50 female mice, 3mg/kg CP 55,940",1.35E-10
same,"PGF2α level, Mean","[2]; midbrain, PND 50 female mice, 3mg/kg CP 55,940",1.57E-10
same,"PGF2α level, Mean","[2]; striatum, adult, 3 mg/kg CP 55,940",2.43E-10
same,"PGF2α level, Mean","[2]; thalamus, WT adult female mice, 3mg/kg CP 55,940",2.22E-10
same,"PGF2α level, Mean","[2]; thalamus, PND 35 adolescent female mice, 3 mg/kg CP 55,940",5.11E-10
same,locomotor activity (visual observation),CD1 female mice,profoundly reduced locomotor activity
same,mortality,CD1 female mice,no mortality
